According to patent US11524021B2, “Use of ginsenoside M1 for manufacturing medicament for treating oral cancer” (priority 2018, dated 2022):

Tests used:
Format in all cases: cell-based
[1] = tested on: human oral cancer cells OECM-1; assay: Apoptotic DNA breaks, TUNEL assay by flow cytometry; details: 50 μM, 24 h
Protocol: (§1) Human oral cancer cell line OECM-1 cells were incubated for 24 h with ginsenoside M1 (10˜20 μg/ml), 50 μM cistaplatin (CDDP) or vehicle (0.1% DMSO). (FIG. 3A) The apoptotic DNA breaks was assayed by terminal deoxynucleotidyl transferase dUTP nick end labeling (TUNEL) assay using flow cytometry. (FIG. 3B) The cell cycle distribution was determined by PI staining using flow cytometry. (FIG. 3C) The apoptosis level was measured by PI/Annexin V double staining assay using flow cytometry. (FIG. 3D) The activation levels of caspase-9 and caspase-3 were measured by detecting the degradation of pro-caspase-9 and pro-caspase-3 using Western blotting. […] (One-way ANOVA with Dunnett's multiple comparisons test).
(§2) To gain further insight into the mode of action of ginsenoside M1, three assays targeting hallmarks of apoptosis, namely (1) the apoptotic DNA breaks assayed by terminal deoxynucleotidyl transferase dUTP nick end labeling (TUNEL) assay, (2) the cell cycle assayed by flow cytometry after propidium iodide (PI)-staining nuclei, (3) the PI/Annexin V double staining assay, and (4) caspase activation were performed. Plate 1×10^6 human oral cancer cells OECM-1 per 6-cm dish in 2 ml of culture medium and were grown overnight at 37° C. in a 5% CO2 incubator. The cells were incubated for 24 h with ginsenoside M1 (10˜20 μg/ml), 50 μM cistaplatin (CDDP) or vehicle. Each group contains a final DMSO concentration of 0.1%. Thereafter, three assays were performed. […] The cells in sub-G1 phase increased after treatment with ginsenoside M1 and CDDP. (FIG. 3B). […] The data were expressed as mean±SD; n=3. ** and *** indicate a significant difference at the level of p<0.01 and p<0.001, respectively, compared to vehicle-control cells. (One-way ANOVA with Dunnett's multiple comparisons test).

[2] = tested on: human oral cancer cells OECM-1; assay: Cell cycle distribution, PI staining by flow cytometry; details: 50 μM, 24 h
Protocol: as §1, §2

[3] = tested on: human oral cancer cells OECM-1; assay: PI/Annexin V double staining assay by flow cytometry; details: 50 μM, 24 h
Protocol: as §1, §2

[4] = tested on: human oral cancer cells SAS; assay: Viability of human oral cancer SAS cells, Trypan blue exclusion; details: 5˜20 μg/ml, 24 h
Protocol: (§3) Human oral cancer cell line SAS cells (FIG. 1A) or OECM-1 cells (FIG. 1B) were incubated for 24 h with ginsenoside M1 (5˜20 μg/ml), ginsenoside Rh2 (5˜20 μg/ml) or vehicle (0.1% DMSO). The live cell numbers were counted by Trypan blue exclusion method. The data were expressed as mean±SD; n=3. *, ** and *** indicate a significant difference at the level of p<0.05, p<0.01 and p<0.001, respectively, compared to vehicle-control cells. (One-way ANOVA with Dunnett's multiple comparisons test).
(§4) Plate 5×10^5 human oral cancer cells SAS per 6-cm dish in 2 ml of culture medium and were grown overnight at 37° C. in a 5% CO2 incubator. The cells were incubated for 24 h with ginsenoside M1 (5˜20 μg/ml), ginsenoside Rh2 (5˜20 μg/ml) or vehicle. Each group contains a final DMSO concentration of 0.1%. Thereafter, the cell numbers were counted by Trypan blue exclusion method. […] The data were expressed as mean±SD; n=3. *, ** and *** indicate a significant difference at the level of p<0.05, p<0.01 and p<0.001, respectively, compared to vehicle-control cells. (One-way ANOVA with Dunnett's multiple comparisons test).

[5] = tested on: human oral cancer OECM-1 cells; assay: Viability of human oral cancer OECM-1 cells, Trypan blue exclusion; details: 5˜20 μg/ml, 24 h
Protocol: as §3, §4

[6] = tested on: normal human gingival epithelioid cell line SG; assay: Toxicity to normal human gingival epithelioid SG cells, Trypan blue exclusion; details: 20 μg/ml, 24 h
Protocol: as §3, with “normal human gingival epithelioid” for “oral cancer”, “SG” for “SAS”, “cells” for “cells (FIG. 1A) or OECM-1 cells (FIG. 1B)”, “n=3.” for “n=3. *,”, “of” for “of p<0.05,”
as §4, with “5×10^5 normal” for “5×10^5”, “gingival epithelioid cell line SG” for “oral cancer cells SAS”, “n=3.” for “n=3. *,”, “of” for “of p<0.05,”

SMILES	apoptotic DNA breaks in OECM-1 cells [1]	cells in sub-G1 phase [2]	cells in G1 phase ([2]; vs control cells)	percentage of cells in S and G2/M phase ([2]; vs control cells)	percentage of OECM-1 cells with PI/Annexin V double positive staining [3]	cell numbers of human oral cancer SAS cells [4]	cell numbers of human oral cancer OECM-1 cells [5]	toxicity to SG cells [6]
N.N.[Cl][Pt][Cl] [CDDP, cistaplatin, reference compound]	significantly induced	increased	increased	decreasing	significantly increased	–	–	–
CC(C)=CCC[C@](C)(O)[C@H]1CC[C@]2(C)[C@@H]1[C@H](O)C[C@@H]1[C@@]3(C)CC[C@H](O[C@@H]4O[C@H](CO)[C@@H](O)[C@H](O)[C@H]4O)C(C)(C)[C@@H]3CC[C@]12C [ginsenoside Rh2, reference compound]	–	–	–	–	–	dose-dependently inhibited	dose-dependently inhibited	completely killed the SG cells
